Counter-ions that a name gives are not always drawn.
Columns and labels:
[1] = test system: rat model of pollakiuria associated with neurogenic bladder due to cerebral infarction; experiment: Rat model of pollakiuria due to cerebral infarction (cystometry); format: in vivo; conditions: male SD rats with cerebral infarction; intravenous administration; 30 minutes after drug administration
Experimental: Male SD rats (270 g to 320 g) were used for the test. After the rats were anesthetized with pentobarbital (50 mg/kg), a vesical fistula cannula and a cannula for drug administration were inserted and indwelled in the bladder and the jugular vein, respectively. A cannula was also inserted and indwelled in the common carotid vein for drug administration. Cerebral infarction was prepared according to the method of Longa et al. (Stroke, 1989, vol. 20, p. 84-91) 2 to 3 days after the surgery. Under halothane anesthesia, the cervical part was incised and a nylon thread was inserted from the common carotid artery to the internal carotid artery and the tip of the thread was carried forward to the origin of the middle cerebral artery and indwelled to induce cerebral ischemia. On the next day, neurological symptoms were observed and scored according to the method of Garcia, et al. (Stroke, 1995, Vol. 26, p. […]) and rats having moderate or more severe symptoms (with a score of 13 or less) were selected.
After awakening from anesthesia, the rats were maintained in Bollman cages. The vesical fistula cannula was connected to a syringe pump via a three-way stopcock and physiological saline was continuously infused into the bladder to induce micturition reflex. Another end of the three-way stopcock was connected to a pressure transducer to measure intravesical pressure. After stabilization of micturition reflex, the test drug was administered through the catheter for drug dose inserted in the external carotid vein.
The volume of physiological saline required to induce a single micturition reflex at 30 minutes after drug administration, that is, bladder capacity and the voided volume per micturition were measured. The results are shown as mean±standard error.
The Student's t-test was used for a comparison between the sham surgery group and the cerebral infarction group and the Dunnett's multiple comparison test was used for a comparison between the group receiving drug administration and the group not receiving drug administration in the cerebral infarction group.

[2] = test system: patients with neurogenic bladder; experiment: Clinical study of urinary urgency, pollakiuria and urinary incontinence: patients with neurogenic bladder; format: in vivo, human; conditions: for improving effect on pollakiuria (in words) / improving effect on urinary incontinence (in words) / improving effect on urinary urgency (in words): solifenacin succinate 5 mg and 10 mg (Groups S5, S10), propiverine hydrochloride 20 mg (Group B), oral once daily for 12 weeks
Experimental: (§1) A clinical study was conducted in patients with urinary urgency, pollakiuria and urinary incontinence under the conditions described below. The causes of urinary urgency, pollakiuria and urinary incontinence were separated into neurogenic bladder (due to cerebral infarction or brain disorder due to brain contusion, peripheral neuropathy, and spinal cord disorder due to cervical or lumbar spondylosis, spondylitis deformans, cervical or lumbar spondylolisthesis, disk herniation, spinal stenosis and the like) and unstable bladder (without accompanying neurological diseases, urinary tract infections and calculi, irradiation history to the lumbar part and tumors in the pelvic organs that can be causal disease of detrussor hyperactivity) and analyses were done.
(§2) Male and female patients aged 20 years or older who presented symptoms of urinary urgency, pollakiuria and urinary incontinence for 6 months or a longer period, the number of micturition per 24 hours was 8 on average or higher and satisfied at least one of the following conditions (1) and (2):
(§3) (1) Having at least one episode of urge urinary incontinence per 24 hours on average (2) Having at least one episode of urinary urgency per 24 hours on average. Patients with stress urinary incontinence, psychogenic pollakiuria and the like were excluded. In addition, patients with complication of urinary tract infection, urinary calculi, interstitial cystitis, bladder tumor and the like were also excluded.
(§4) Group P: Placebo (Sham drug) Group S5: 5 mg of solifenacin succinate (corresponding to 3.8 mg of solifenacin calculated as a free base) Group S10: 10 mg of solifenacin succinate (corresponding to 7.5 mg of solifenacin calculated as a free base) Group B: 20 mg of propiverine hydrochloride
(§5) All the groups received oral administration once daily for 12 weeks.

[3] = test system: patients with unstable bladder; experiment: Clinical study of urinary urgency, pollakiuria and urinary incontinence: patients with unstable bladder; format: in vivo, human
Experimental: as §1, §2, §3, §4, §5

[4] = Group S5: 5 mg oral once daily for 12 weeks
[5] = Group S10: 10 mg oral once daily for 12 weeks
[6] = Group B: 20 mg oral once daily for 12 weeks

## O=C(O[C@H]1CN2CCC1CC2)N1CCc2ccccc2[C@@H]1c1ccccc1 [solifenacin succinate, (3R)-quinuclidin-3-yl (1S)-1-phenyl-1,2,3,4-tetrahydroisoquinoline-2-carboxylate]
[1]
  doses that increased the bladder capacity: ≥ 0.03 mg/kg
  doses that increased the voided volume: ≥ 0.03 mg/kg
[2]; [4]
  Difference of change in the number of micturitions from that in Group P: −0.56
  Difference of change in the number of urinary incontinence episodes from that in Group P: −1.19
  Difference of change in the number of urinary urgency episodes from that in Group P: −1.03
  Mean change in the number of micturitions: −2.04
  Mean change in the number of urinary incontinence episodes: −1.80
  Mean change in the number of urinary urgency episodes: −2.86
[2]; [5]
  Difference of change in the number of micturitions from that in Group P: −1.11
  Difference of change in the number of urinary incontinence episodes from that in Group P: −0.79
  Difference of change in the number of urinary urgency episodes from that in Group P: −0.60
  Mean change in the number of micturitions: −2.59
  Mean change in the number of urinary incontinence episodes: −1.40
  Mean change in the number of urinary urgency episodes: −2.43
[2]
  improving effect on pollakiuria (in words): improving effect on pollakiuria was observed
  improving effect on urinary incontinence (in words): improve all the symptoms of urinary urgency, pollakiuria and urinary incontinence
  improving effect on urinary urgency (in words): improving effect on urinary urgency was observed
[3]; [4]
  Difference of change in the number of micturitions from that in Group P: −1.02
  Difference of change in the number of urinary incontinence episodes from that in Group P: −0.85
  Difference of change in the number of urinary urgency episodes from that in Group P: −1.13
  Mean change in the number of micturitions: −1.93
  Mean change in the number of urinary incontinence episodes: −1.58
  Mean change in the number of urinary urgency episodes: −2.38
[3]; [5]
  Difference of change in the number of micturitions from that in Group P: −1.26
  Difference of change in the number of urinary incontinence episodes from that in Group P: −0.88
  Difference of change in the number of urinary urgency episodes from that in Group P: −1.56
  Mean change in the number of micturitions: −2.17
  Mean change in the number of urinary incontinence episodes: −1.61
  Mean change in the number of urinary urgency episodes: −2.81

## CCCOC(C(=O)OC1CCN(C)CC1)(c1ccccc1)c1ccccc1 [propiverine hydrochloride, reference compound]
[1]
  doses that increased the bladder capacity: ≥ 1 mg/kg
  doses that increased the voided volume: ≥ 0.3 mg/kg
[2]; [6]
  Difference of change in the number of micturitions from that in Group P: +0.23
  Difference of change in the number of urinary incontinence episodes from that in Group P: −1.01
  Difference of change in the number of urinary urgency episodes from that in Group P: +0.18
  Mean change in the number of micturitions: −1.25
  Mean change in the number of urinary incontinence episodes: −1.62
  Mean change in the number of urinary urgency episodes: −1.65
[2]
  improving effect on pollakiuria (in words): no improving effect on pollakiuria was observed
  improving effect on urinary incontinence (in words): improved urinary incontinence
  improving effect on urinary urgency (in words): improving effect on urinary urgency was not observed
[3]; [6]
  Difference of change in the number of micturitions from that in Group P: −0.99
  Difference of change in the number of urinary incontinence episodes from that in Group P: −0.50
  Difference of change in the number of urinary urgency episodes from that in Group P: −1.08
  Mean change in the number of micturitions: −1.90
  Mean change in the number of urinary incontinence episodes: −1.23
  Mean change in the number of urinary urgency episodes: −2.33

From patent US20090131469A1, “PHARMACEUTICAL AGENT COMPRISING SOLIFENACIN” (ASTELLAS PHARMA INC., priority 2005, published 2009)
